{"source": "paper PMC9482650", "about": "“Quantitative fragmentomics allow affinity mapping of interactomes” (Nature Communications, 2022)", "test_in_all_cases": "Holdup assay", "assay_type_in_all_cases": "binding", "key": {"Inadl_5 PDZ": {"target": "Inadl_5 PDZ (Homo sapiens, UniProt Q8NI35)", "sequence (Q8NI35 686-772 limits assumed)": "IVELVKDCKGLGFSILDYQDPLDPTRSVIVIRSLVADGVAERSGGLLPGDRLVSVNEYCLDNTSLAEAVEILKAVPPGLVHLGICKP"}, "MPDZ_10 PDZ": {"target": "MPDZ_10 PDZ (Homo sapiens, UniProt O75970)", "sequence (O75970 1629-1712 limits assumed)": "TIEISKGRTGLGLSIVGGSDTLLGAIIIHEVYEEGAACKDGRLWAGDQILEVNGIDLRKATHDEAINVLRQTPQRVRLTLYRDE"}, "MAGI1_4 PDZ": {"target": "MAGI1_4 PDZ (Homo sapiens, UniProt Q96QZ7)", "sequence (Q96QZ7 813-895 limits assumed)": "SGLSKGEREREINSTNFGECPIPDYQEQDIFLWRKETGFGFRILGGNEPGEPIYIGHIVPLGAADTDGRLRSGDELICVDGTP"}, "GRIP2_2 PDZ": {"target": "GRIP2_2 PDZ (Homo sapiens, UniProt Q9C0E4)", "sequence (Q9C0E4 148-234 limits assumed)": "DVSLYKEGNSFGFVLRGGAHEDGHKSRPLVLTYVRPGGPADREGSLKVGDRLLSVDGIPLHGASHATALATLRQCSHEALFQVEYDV"}, "GOPC PDZ": {"target": "GOPC PDZ (Homo sapiens, UniProt Q9HD26)"}, "LNX2_2 PDZ": {"target": "LNX2_2 PDZ (Homo sapiens, UniProt Q8N448)", "sequence (Q8N448 339-422 limits assumed)": "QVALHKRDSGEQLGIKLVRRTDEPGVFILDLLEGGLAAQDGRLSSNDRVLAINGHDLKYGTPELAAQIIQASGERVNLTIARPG"}, "Inadl_8 PDZ": {"target": "Inadl_8 PDZ (Homo sapiens, UniProt Q8NI35)", "sequence (Q8NI35 1437-1520 limits assumed)": "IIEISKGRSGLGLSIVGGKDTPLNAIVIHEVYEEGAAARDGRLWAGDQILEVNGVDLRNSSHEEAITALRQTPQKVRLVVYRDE"}, "PDZRN3_2 PDZ": {"target": "PDZRN3_2 PDZ (Homo sapiens, UniProt Q9UPQ7)", "sequence (Q9UPQ7 419-503 limits assumed)": "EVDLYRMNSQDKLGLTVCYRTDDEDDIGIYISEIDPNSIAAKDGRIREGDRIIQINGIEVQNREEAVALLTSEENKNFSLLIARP", "conditions": "sheet PPI_convert; read-out: affinity to PDZ PDZRN3_2 (converted)"}, "MPP3 PDZ": {"target": "MPP3 PDZ (Homo sapiens, UniProt Q13368)", "sequence (Q13368 137-212 limits assumed)": "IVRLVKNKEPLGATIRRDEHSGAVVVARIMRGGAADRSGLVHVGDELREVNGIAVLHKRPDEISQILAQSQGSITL", "conditions": "sheet PPI_convert; read-out: affinity to PDZ MPP3 (converted)"}, "PARD3B_3 PDZ": {"target": "PARD3B_3 PDZ (Homo sapiens, UniProt Q8TEW8)", "sequence (Q8TEW8 498-585 limits assumed)": "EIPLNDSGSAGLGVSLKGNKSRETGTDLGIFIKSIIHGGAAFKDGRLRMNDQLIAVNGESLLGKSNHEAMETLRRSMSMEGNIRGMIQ", "conditions": "sheet PPI_convert; read-out: affinity to PDZ PARD3B_3 (converted)"}, "PDLIM4 PDZ": {"target": "PDLIM4 PDZ (Homo sapiens, UniProt P50479)", "sequence (P50479 1-84 limits assumed)": "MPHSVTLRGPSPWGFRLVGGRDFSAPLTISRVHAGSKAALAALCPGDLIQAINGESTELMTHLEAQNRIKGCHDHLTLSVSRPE", "conditions": "sheet PPI_convert; read-out: affinity to PDZ PDLIM4 (converted)", "text": "Supplement 41467_2022_33018_MOESM4_ESM.xlsx, sheet \"PPI_convert\" | column: PDLIM4"}, "DLG5_2 PDZ": {"target": "DLG5_2 PDZ (Homo sapiens, UniProt Q8TDM6)", "sequence (Q8TDM6 705-796 limits assumed)": "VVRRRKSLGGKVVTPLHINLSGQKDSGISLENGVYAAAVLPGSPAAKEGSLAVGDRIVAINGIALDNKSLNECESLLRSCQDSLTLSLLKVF", "conditions": "sheet PPI_convert; read-out: affinity to PDZ DLG5_2 (converted)"}, "MAGI3_6 PDZ": {"target": "MAGI3_6 PDZ (Homo sapiens, UniProt Q5TCQ9)", "sequence (Q5TCQ9 1021-1103 limits assumed)": "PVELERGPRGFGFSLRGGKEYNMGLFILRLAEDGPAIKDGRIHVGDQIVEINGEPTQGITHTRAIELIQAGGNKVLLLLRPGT", "conditions": "sheet PPI_convert; read-out: affinity to PDZ MAGI3_6 (converted)"}, "MAGI1_3 PDZ": {"target": "MAGI1_3 PDZ (Homo sapiens, UniProt Q96QZ7)", "sequence (Q96QZ7 643-721 limits assumed)": "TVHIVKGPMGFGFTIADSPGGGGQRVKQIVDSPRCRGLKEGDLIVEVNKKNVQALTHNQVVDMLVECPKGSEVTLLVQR", "conditions": "sheet PPI_convert; read-out: affinity to PDZ MAGI1_3 (converted)"}, "DLG5_4 PDZ": {"target": "DLG5_4 PDZ (Homo sapiens, UniProt Q8TDM6)", "sequence (Q8TDM6 1501-1582 limits assumed)": "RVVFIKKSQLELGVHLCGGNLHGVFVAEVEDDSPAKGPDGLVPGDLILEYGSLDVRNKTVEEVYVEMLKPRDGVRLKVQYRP", "conditions": "sheet PPI_convert; read-out: affinity to PDZ DLG5_4 (converted)"}, "NHERF4_3 PDZ": {"target": "NHERF4_3 PDZ (Homo sapiens, UniProt Q86UT5)", "sequence (Q86UT5 329-412 limits assumed)": "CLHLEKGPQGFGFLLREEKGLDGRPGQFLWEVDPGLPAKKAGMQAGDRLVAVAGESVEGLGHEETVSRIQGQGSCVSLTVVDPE", "conditions": "sheet PPI_convert; read-out: affinity to PDZ NHERF4_3 (converted)"}, "PDZD4 PDZ": {"target": "PDZD4 PDZ (Homo sapiens, UniProt Q76G19)", "sequence (Q76G19 130-214 limits assumed)": "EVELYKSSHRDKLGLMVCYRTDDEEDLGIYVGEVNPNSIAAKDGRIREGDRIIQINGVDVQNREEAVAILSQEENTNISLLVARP", "conditions": "sheet PPI_convert; read-out: affinity to PDZ PDZD4 (converted)", "text": "Supplement 41467_2022_33018_MOESM4_ESM.xlsx, sheet \"PPI_convert\" | column: PDZD4"}, "MPDZ_13 PDZ": {"target": "MPDZ_13 PDZ (Homo sapiens, UniProt O75970)", "sequence (O75970 1987-2070 limits assumed)": "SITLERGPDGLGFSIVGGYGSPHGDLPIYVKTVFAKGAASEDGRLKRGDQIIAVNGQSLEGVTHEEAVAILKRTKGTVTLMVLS", "conditions": "sheet PPI_convert; read-out: affinity to PDZ MPDZ_13 (converted)"}, "MAGI1_6 PDZ": {"target": "MAGI1_6 PDZ (Homo sapiens, UniProt Q96QZ7)", "sequence (Q96QZ7 1124-1206 limits assumed)": "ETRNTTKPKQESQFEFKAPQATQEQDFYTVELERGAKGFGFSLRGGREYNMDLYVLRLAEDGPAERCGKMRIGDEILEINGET", "conditions": "sheet PPI_convert; read-out: affinity to PDZ MAGI1_6 (converted)"}, "MPDZ_4 PDZ": {"target": "MPDZ_4 PDZ (Homo sapiens, UniProt O75970)", "sequence (O75970 553-634 limits assumed)": "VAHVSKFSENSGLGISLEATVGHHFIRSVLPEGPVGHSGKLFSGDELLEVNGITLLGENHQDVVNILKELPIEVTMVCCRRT", "conditions": "sheet PPI_convert; read-out: affinity to PDZ MPDZ_4 (converted)", "text": "Supplement 41467_2022_33018_MOESM4_ESM.xlsx, sheet \"PPI_convert\" | column: MPDZ_4"}, "IL16_2 PDZ": {"target": "IL16_2 PDZ (Homo sapiens, UniProt Q14005)", "sequence (Q14005 355-440 limits assumed)": "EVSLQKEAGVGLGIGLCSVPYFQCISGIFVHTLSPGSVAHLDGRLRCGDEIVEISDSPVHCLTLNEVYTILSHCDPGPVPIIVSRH", "conditions": "sheet PPI_convert; read-out: affinity to PDZ IL16_2 (converted)"}, "NHERF2_1 PDZ": {"target": "NHERF2_1 PDZ (Homo sapiens, UniProt Q15599)", "sequence (Q15599 11-90 limits assumed)": "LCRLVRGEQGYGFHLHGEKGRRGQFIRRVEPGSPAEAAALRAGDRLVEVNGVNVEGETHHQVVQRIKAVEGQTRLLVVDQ", "conditions": "sheet PPI_convert; read-out: affinity to PDZ NHERF2_1 (converted)"}, "MAGI3_4 PDZ": {"target": "MAGI3_4 PDZ (Homo sapiens, UniProt Q5TCQ9)", "sequence (Q5TCQ9 726-808 limits assumed)": "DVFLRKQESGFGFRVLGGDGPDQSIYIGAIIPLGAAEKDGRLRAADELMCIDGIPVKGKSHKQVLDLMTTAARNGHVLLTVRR", "conditions": "sheet PPI_convert; read-out: affinity to PDZ MAGI3_4 (converted)"}, "MLLT4 PDZ": {"target": "MLLT4 PDZ (Homo sapiens, UniProt P55196)", "sequence (P55196 1007-1093 limits assumed)": "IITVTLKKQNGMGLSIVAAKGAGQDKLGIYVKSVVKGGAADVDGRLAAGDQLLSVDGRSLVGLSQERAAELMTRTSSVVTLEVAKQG", "conditions": "sheet PPI_convert; read-out: affinity to PDZ MLLT4 (converted)", "text": "Supplement 41467_2022_33018_MOESM4_ESM.xlsx, sheet \"PPI_convert\" | column: MLLT4"}, "MAGI2_6 PDZ": {"target": "MAGI2_6 PDZ (Homo sapiens, UniProt Q86UL8)", "sequence (Q86UL8 1147-1229 limits assumed)": "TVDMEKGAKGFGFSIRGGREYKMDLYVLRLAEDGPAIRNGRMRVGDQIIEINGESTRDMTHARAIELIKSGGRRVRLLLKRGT", "conditions": "composite holdup affinity; 0.00=below quantification threshold; read-out: COMP pKd (converted)"}, "PDZD2_5 PDZ": {"target": "PDZD2_5 PDZ (Homo sapiens, UniProt O15018)", "sequence (O15018 2622-2706 limits assumed)": "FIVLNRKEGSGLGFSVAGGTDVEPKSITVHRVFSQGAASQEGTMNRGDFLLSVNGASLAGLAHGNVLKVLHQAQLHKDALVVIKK", "conditions": "sheet PPI_convert; read-out: affinity to PDZ PDZD2_5 (converted)"}, "DFNB31_1 PDZ": {"target": "DFNB31_1 PDZ (Homo sapiens, UniProt Q9P202)", "sequence (Q9P202 140-223 limits assumed)": "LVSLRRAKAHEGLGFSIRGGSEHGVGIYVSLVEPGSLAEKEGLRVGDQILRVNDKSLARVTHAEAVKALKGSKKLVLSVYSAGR", "conditions": "composite holdup affinity; 0.00=below quantification threshold; read-out: COMP pKd (converted)"}}, "note": "Ends that are not written are not given here."}
{"compound": "CC(C)C[C@H](NC(=O)[C@@H](N)CCCNC(=N)N)C(=O)N[C@@H](CCC(N)=O)C(=O)N[C@@H](CCCNC(=N)N)C(=O)N[C@@H](CCCNC(=N)N)C(=O)N[C@@H](CCCNC(=N)N)C(=O)N[C@@H](CCC(=O)O)C(=O)N[C@H](C(=O)N[C@@H](CCC(N)=O)C(=O)N[C@H](C(=O)O)C(C)C)[C@@H](C)O", "note": "[HPV18-E6]", "values": [{"measurement": "Kd", "setting": "Inadl_5 PDZ", "result": 302, "unit": "µM"}, {"measurement": "Kd", "setting": "MPDZ_10 PDZ", "result": 275, "unit": "µM"}, {"measurement": "Kd", "setting": "MAGI1_4 PDZ", "result": 52.5, "unit": "µM"}, {"measurement": "Kd", "setting": "GRIP2_2 PDZ", "result": 33.1, "unit": "µM"}, {"measurement": "Kd", "setting": "GOPC PDZ", "result": 661, "unit": "µM"}, {"measurement": "Kd", "setting": "LNX2_2 PDZ", "result": 676, "unit": "µM"}, {"measurement": "Kd", "setting": "Inadl_8 PDZ", "result": 479, "unit": "µM"}]}
{"compound": "SKPTRRETEV [HPV35-E6]", "values": [{"measurement": "Kd", "setting": "PDZRN3_2 PDZ", "result": 269, "unit": "µM"}, {"measurement": "Kd", "setting": "MPP3 PDZ", "result": 200, "unit": "µM"}, {"measurement": "Kd", "setting": "PARD3B_3 PDZ", "result": 186, "unit": "µM"}, {"measurement": "Kd", "setting": "PDLIM4 PDZ", "result": 69.2, "unit": "µM"}, {"measurement": "Kd", "setting": "DLG5_2 PDZ", "result": 19.1, "unit": "µM"}, {"measurement": "Kd", "setting": "MAGI3_6 PDZ", "result": 155, "unit": "µM"}, {"measurement": "Kd", "setting": "MAGI1_3 PDZ", "result": 81.3, "unit": "µM"}, {"measurement": "Kd", "setting": "DLG5_4 PDZ", "result": 219, "unit": "µM"}, {"measurement": "Kd", "setting": "NHERF4_3 PDZ", "result": 166, "unit": "µM"}, {"measurement": "Kd", "setting": "PDZD4 PDZ", "result": 282, "unit": "µM"}, {"measurement": "Kd", "setting": "MPDZ_13 PDZ", "result": 170, "unit": "µM"}, {"measurement": "Kd", "setting": "MAGI1_6 PDZ", "result": 219, "unit": "µM"}, {"measurement": "Kd", "setting": "MPDZ_4 PDZ", "result": 282, "unit": "µM"}, {"measurement": "Kd", "setting": "IL16_2 PDZ", "result": 269, "unit": "µM"}, {"measurement": "Kd", "setting": "NHERF2_1 PDZ", "result": 170, "unit": "µM"}, {"measurement": "Kd", "setting": "MAGI3_4 PDZ", "result": 174, "unit": "µM"}, {"measurement": "Kd", "setting": "MLLT4 PDZ", "result": 162, "unit": "µM"}, {"measurement": "Kd", "setting": "MAGI2_6 PDZ", "result": 324, "unit": "µM"}, {"measurement": "Kd", "setting": "PDZD2_5 PDZ", "result": 170, "unit": "µM"}]}
{"compound": "SRRPRTETQV [HPV31-E6]", "values": [{"measurement": "Kd", "setting": "DFNB31_1 PDZ", "result": 282, "unit": "µM"}]}
